Experimental data taken from US12239733B2, “Treatment of protein aggregation myopathic and neurodegenerative diseases by parenteral administration of trehalose” (Seelos Therapeutics, Inc., priority 2013, dated 2025).
“Also recorded” adds a separate entry of the source.

Assays:
[1] = Preclinical pharmacokinetic study: plasma and muscle concentrations of trehalose after intravenous bolus (IV) and oral gavage (PO); format: in vivo, male Sprague-Dawley (SD) rats
Description: The plasma and muscle concentrations of trehalose in male Sprague-Dawley (SD) rats was determined after intravenous bolus (IV) and oral gavage (PO) administration.
The study included 42 SD rats (male, 250 to 350 grams in weight, the Shanghai SLAC Laboratory Animal Co. Ltd.). Animals were administered with a volume of 5 ml/kg trehalose formulation (trehalose dihydrate in sterilized water at 200 mg/mL) to achieve a nominal dose of 1 gr/kg, intravenously or orally.
Blood samples were collected after each dose administration and processed for plasma. Muscle samples (hind leg muscle) were collected and homogenized. The concentrations of trehalose in plasma and muscle homogenate samples were analyzed by qualified bioanalytical LC/MS/MS methods.
Plasma concentration data of trehalose was subjected to a non compartmental pharmacokinetic analysis using WinNonlin software program (version 6.3, Pharsight, Mountain View, CA). Zero-time intercept concentration (C0), volume of distribution (Vdss), Clearance (Cl), peak plasma concentrations (Cmax) and the corresponding peak times (Tmax), terminal half-life (T½), mean residence time (MRT) from time zero to the last time point (MRT0-last), MRT from time zero to infinity (MRT0-inf), the area under the plasma concentration-time curve (AUC) from time zero to the last time point (AUC0-last) and AUC from time zero extrapolated to infinity (AUC0-inf) were calculated using the linear/log trapezoidal rule. Nominal sampling times were used to calculate all pharmacokinetic parameters since there was not any deviation larger than 5% between the actual and nominal sampling times.
The values of muscle to plasma concentration and AUC ratio (M/P ratio) were both calculated.

[2] = system: healthy volunteers; details: cited from earlier work
[3] = oral (ingested); cited from earlier work
[4] = system: transgenic HD mice; details: oral, cited from earlier work
[5] = system: transgenic OPMD mice; details: cited from earlier work
[6] = 0.2%-5% trehalose in drinking water, 5-9 weeks

Compound | tolerability in rats ([1]; 1000 mg/kg IV or PO, male SD rats) | AUC0-inf/AUC0-last ([1]; male, Sprague-Dawley, rat, in vivo, iv, 1000 mg/kg) [%] | AUC0-inf ([1]; rat, in vivo, iv, 1000 mg/kg) [ng·h/g] | plasma concentration of trehalose after oral administration ([1]; rat, in vivo, po) | safety issues reported ([2]; healthy volunteers, oral doses from 10 to 60 gr) | gastrointestinal effects of high oral amounts ([2]; oral, exceeding 40-50 gram per day, higher than 50 g a day in humans) | share of ingested trehalose absorbed into the blood stream [3] | motor dysfunction / HD-related motor symptoms [4, 6] | polyglutamine / huntingtin aggregates [4, 6] | survival ([4]; HD mouse model) | OPMD onset, phenotype, aggregate formation, cell death ([5]; oral trehalose) | aggregation formation and toxicity of mutant PABPN1 in myocytes ([5]; oral, 2% trehalose in drinking water, 4-6 months)
OC[C@H]1O[C@H](O[C@H]2O[C@H](CO)[C@@H](O)[C@H](O)[C@H]2O)[C@H](O)[C@@H](O)[C@@H]1O [trehalose dihydrate] | well tolerated |  |  |  |  |  |  |  |  |  |  | 
OC[C@H]1O[C@H](O[C@H]2O[C@H](CO)[C@@H](O)[C@H](O)[C@H]2O)[C@H](O)[C@@H](O)[C@@H]1O [trehalose, α-G-glucopyranosyl α-D-glucopyranoside] |  | 100 | 183000 | undetectable | mild abdominal symptoms | frequently cause diarrhea, bloating and discomfort; also recorded: causes diarrhea and bloating | Less than 0.5% | improve motor dysfunction; also recorded: improvement of HD-related motor symptoms | reduce polyglutamine aggregates; also recorded: inhibition of formation of intra-nuclear huntingtin aggregates in the brain and liver | extend survival | delay the OPMD onset, attenuate the disease phenotype, decrease polyalanine protein aggregate formation and decrease cell death | significantly reduce aggregation formation and toxicity of the mutant PABPN1 in myocytes
